Experimental findings from ChEMBL document CHEMBL1121381, “Beta-adrenergic blocking agents. 19. 1-Phenyl-2-[[(substituted-amido)alkyl]amino]ethanols” (1980) are described below.

The species entered for one assay is Felis catus. The experiment in a line: Percentage inhibition of depressor response in cat was determined. Type of assay: functional. Set-up: concentration or dose not given beside the values.
In assay [1] the target is Adrenergic receptor beta (Rattus norvegicus) (UniProt P18090+P10608+P26255). The experiment in a line: In vivo beta-adrenoceptor blocking potency measured by blockade of the isoproterenol tachycardia response in rat. The assay is classed as functional, organism-based.

The compound `CC(C)(CNC(=O)Cc1ccccc1)NCC(O)c1ccccc1.O=C(O)/C=C/C(=O)O` (stereo unspecified) yielded an Inhibition in the assay filed under Felis catus of 28%. The ED50 in assay [1] came out at 0.1 mg/kg.
In the same order, the values of `O=C(NCCNCC(O)c1ccccc1)C1CCCC1` (stereo unspecified) are 8% and 0.42 mg/kg.
On the same counts, the results for `C=CCNC(=O)NCCNCC(O)c1ccccc1` (stereo unspecified) are 0% and 0.26 mg/kg.
In assay [1], `CC(C)C(=O)NCCNCC(O)c1ccc(Br)cc1` (stereo unspecified) had an ED50 of 1.6 mg/kg.
In turn, `O=C(Cc1ccccc1)NCCNCC(O)c1ccccc1` (stereo unspecified) yielded an Inhibition in the assay filed under Felis catus of 6%. The same compound displayed an ED50 in assay [1] of 0.38 mg/kg.
In the same order, the values of `CC(CNC(=O)Cc1ccccc1Cl)NCC(O)c1ccccc1` (stereo unspecified) are 19% and 0.03 mg/kg.
`CC(=O)Nc1ccc(CC(=O)NCCNCC(O)c2ccccc2)cc1` (stereo unspecified) gave an ED50 in assay [1] of 1.2 mg/kg.
Turning to `COc1ccc(CC(=O)NCCNCC(O)c2ccccc2)cc1OC` (stereo unspecified), the ED50 in assay [1] was determined as 7 mg/kg.
With `CC(=O)c1ccc(OCC(=O)NCCNCC(O)c2ccccc2)cc1` (stereo unspecified), the ED50 in assay [1] came out at 0.6 mg/kg.
For the compound `CC(CNC(=O)Cc1ccccc1)NCC(O)c1ccccc1` (stereo unspecified), in the assay listed under Felis catus, the Inhibition stood at 36%. The 50% effective dose (ED50) in assay [1] was determined as 0.1 mg/kg.
In the same order, the values of `COc1ccc(C(O)CNCCNC(=O)C(C)C)cc1` (stereo unspecified) are 0% and 0.3 mg/kg.
`CCCS(=O)(=O)NCCNCC(O)c1ccccc1` (stereo unspecified) gave an Inhibition in the assay listed under Felis catus of 0%. This compound also showed an ED50 in assay [1] of 0.5 mg/kg.
On the same counts, the results for `CCCC(=O)NCCNCC(O)c1ccccc1` (stereo unspecified) are 0% and 0.45 mg/kg.
Take `COc1ccc(CC(=O)NCCNCC(O)c2ccccc2)cc1` (stereo unspecified): the Inhibition in the assay listed under Felis catus came out at 24%. In assay [1], this compound came in with an ED50 of 0.32 mg/kg.
In the case of `CC(C)C(=O)NCCNCC(O)c1ccc(Cl)cc1Cl` (stereo unspecified), the ED50 in assay [1] stood at 0.75 mg/kg.
For the compound `O=S(=O)(NCCNCC(O)c1ccccc1)c1ccccc1` (stereo unspecified), in the assay filed under Felis catus, the Inhibition is given as 27%. The compound also came in with an ED50 in assay [1] of 1 mg/kg.
`CC(C)C(=O)NCCNCC(O)c1ccc(N)cc1` (stereo unspecified) returned an Inhibition in the assay listed under Felis catus of 69%. In assay [1], this compound displayed an ED50 of 0.6 mg/kg.
`CCC(=O)NCCNCC(O)c1ccccc1` (stereo unspecified) came in with an Inhibition in the assay listed under Felis catus of 46%. The compound also displayed an ED50 in assay [1] of 0.07 mg/kg.
`CCC(C)NCC(O)c1ccc2c(c1)CCCC2.Cl` (stereo unspecified) yielded an Inhibition in the assay filed under Felis catus of 47%.
`CC(C)CC(=O)NCCNCC(O)c1ccccc1` (stereo unspecified) displayed an Inhibition in the assay filed under Felis catus of 25%. This compound registered an ED50 in assay [1] of 0.72 mg/kg.
In the same order, the values of `CC(C)C(=O)NCCNCC(O)c1ccccc1` (stereo unspecified) are 27% and 0.7 mg/kg.
On the same counts, the results for `CCCCCC(=O)NCCNCC(O)c1ccccc1` (stereo unspecified) are 8% and 1.4 mg/kg.
As to `O=C(NCCNCC(O)c1ccccc1)c1ccccc1` (stereo unspecified), in assay [1], it took a dose of 10 mg/kg to reach the 50% effect level (ED50).
Consider `CC(C)C(=O)NCCNCC(O)c1ccc(NS(C)(=O)=O)cc1` (stereo unspecified), for which the ED50 in assay [1] was determined as 5.2 mg/kg.
Take `O=S(=O)(Cc1ccccc1)NCCNCC(O)c1ccccc1` (stereo unspecified): the Inhibition in the assay filed under Felis catus came to 0%. In addition, it took a dose of 2 mg/kg to reach the 50% effect level in assay [1] (ED50).
On the same counts, the results for `O=C(Cc1ccccc1)NCCNCC(O)c1ccccc1Cl.O=C(O)/C=C/C(=O)O` (stereo unspecified) are 45% and 0.6 mg/kg.
On the same counts, the results for `O=C(COc1ccc(Cl)cc1)NCCNCC(O)c1ccccc1` (stereo unspecified) are 36% and 2.5 mg/kg.
On the same counts, the results for `O=[N+]([O-])c1ccccc1S(=O)(=O)NCCNCC(O)c1ccccc1` (stereo unspecified) are 23% and 2.5 mg/kg.
`COCC(=O)NCCNCC(O)c1ccccc1` (stereo unspecified) displayed an Inhibition in the assay listed under Felis catus of 44%. The compound further displayed an ED50 in assay [1] of 0.4 mg/kg.
The compound `O=C(NCCNCC(O)c1ccccc1)C(F)(F)F` (stereo unspecified) came in with an ED50 in assay [1] of 0.1 mg/kg.
Still for that read-out and setting: the same measure for `CCC(=O)NCCNCC(O)c1ccc(C)cc1` (stereo unspecified): 0.5 mg/kg.
Same read-out and setting: the result for `CCOC(=O)NCCNCC(O)c1ccccc1` (stereo unspecified) reads 2.8 mg/kg.
`O=C(NCCNCC(O)c1ccccc1)Nc1ccccc1` (stereo unspecified): the Inhibition in the assay filed under Felis catus is reported as 0%. Further, in assay [1], the ED50 is 2.9 mg/kg.
For `O=C(COc1ccccc1)NCCNCC(O)c1ccccc1` (stereo unspecified), in assay [1], the ED50 is 1 mg/kg.
In assay [1], `NC(=O)c1ccccc1OCC(=O)NCCNCC(O)c1ccccc1` (stereo unspecified) had an ED50 of 5.2 mg/kg.
In turn, `CC(C)NCC(O)c1ccc(NS(C)(=O)=O)cc1` (stereo unspecified) [SOTALOL] came in with an Inhibition in the assay listed under Felis catus of 85%.
Same read-out and setting: the same measure for `CC(=O)Nc1ccc(OCC(O)CNC(C)C)cc1` (stereo unspecified) [PRACTOLOL]: 8%.
`CC(C)C(=O)NCC(C)(C)NCC(O)c1ccccc1` (stereo unspecified): the Inhibition in the assay listed under Felis catus was 9%. The compound further had an ED50 in assay [1] of 0.27 mg/kg.
Turning to `CCCCNC(=O)NCCNCC(O)c1ccccc1` (stereo unspecified), the Inhibition in the assay filed under Felis catus worked out at 54%. In assay [1], this compound had an ED50 of 0.5 mg/kg.
In the same order, the values of `O=C(Cc1ccc(Cl)cc1)NCCNCC(O)c1ccccc1` (stereo unspecified) are 3% and 0.7 mg/kg.
As to `CC(O)c1ccc(OCC(=O)NCCNCC(O)c2ccccc2)cc1` (stereo unspecified), the ED50 in assay [1] is 1.6 mg/kg.
Same read-out and setting: the same measure for `C=CCOc1ccccc1OCC(=O)NCCNCC(O)c1ccccc1` (stereo unspecified): 5.8 mg/kg.
In the assay filed under Felis catus, `CC(CNC(=O)C1CCCCC1)NCC(O)c1ccccc1` (stereo unspecified) displayed an Inhibition of 19%. The compound further displayed a 50% effective dose (ED50) in assay [1] of 0.11 mg/kg.
As for `CC(CNCC(O)c1ccccc1)NC(=O)Cc1ccccc1` (stereo unspecified), the ED50 in assay [1] worked out at 8 mg/kg.
Still for that read-out and setting: the result for `Nc1ccc(CC(=O)NCCNCC(O)c2ccccc2)cc1` (stereo unspecified) reads 2.5 mg/kg.
As to `Cl.O=C(NCCNCC(O)c1ccccc1)C1CCCCC1` (stereo unspecified), the Inhibition in the assay filed under Felis catus was 0%. This compound also registered an ED50 in assay [1] of 0.16 mg/kg.
In the same order, the values of `O=C(NCCNCC(O)c1ccccc1)c1ccc(O)cc1` (stereo unspecified) are 10% and 9 mg/kg.
In the same order, the values of `CC(=O)NCCNCC(O)c1ccccc1` (stereo unspecified) are 50% and 0.08 mg/kg.
In assay [1], `N#Cc1ccc(OCC(=O)NCCNCC(O)c2ccccc2)cc1` (stereo unspecified) had a median effective dose (ED50) of 0.7 mg/kg.
In the assay filed under Felis catus, `CC(C)C(=O)NCCNCC(O)c1ccc([N+](=O)[O-])cc1` (stereo unspecified) registered an Inhibition of 0%. For the same compound, the 50% effect level in assay [1] (ED50) was put at a dose of 10 mg/kg.
`O=C(CO)NCCNCC(O)c1ccccc1` (stereo unspecified) came in with an ED50 in assay [1] of 0.3 mg/kg.
